From patent US5654290A, “Polyunsaturated fatty acid based drugs” (Institut National de la Sante et de la Recherche Medicale, priority 1992, dated 1997)
“And” between values parts separate entries of the source, which are not always exact repeats. Identical values can stand only once. Like-named read-outs stand apart in the source and are kept apart here.

Legend:
[1] = biological target: T1, TXA2 /PGH2 receptor of the platelet membranes (Homo sapiens, UniProt P21731); assay: Specific binding of tritiated SQ29,548 to the TXA2/PGH2 receptor of platelet membranes whose PC's or PE's are enriched in 18:2n-6 or DHA; details: for effect on the TXA2 /PGH2 receptor (dissociation constant of SQ29.548): platelet membranes enriched, in words
T1 construct: TXA2 /PGH2 receptor, to platelet membranes whose PC's or PE's are enriched either in 18:2n-6 or in DHA; from tissue; host or cells: platelet membranes (phospholipids exchanged with maize or endogenous platelet transfer protein)
T1 sequence (P21731 1-343): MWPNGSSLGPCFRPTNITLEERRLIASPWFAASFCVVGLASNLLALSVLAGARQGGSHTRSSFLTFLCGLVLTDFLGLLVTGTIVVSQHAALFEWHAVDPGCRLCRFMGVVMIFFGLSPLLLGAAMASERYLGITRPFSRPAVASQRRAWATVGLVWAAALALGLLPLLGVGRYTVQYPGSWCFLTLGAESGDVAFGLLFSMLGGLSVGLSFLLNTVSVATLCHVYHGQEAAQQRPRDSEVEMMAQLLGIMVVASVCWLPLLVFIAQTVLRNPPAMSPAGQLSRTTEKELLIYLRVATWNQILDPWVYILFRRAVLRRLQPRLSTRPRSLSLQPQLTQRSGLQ
Protocol: The diacyl-glycerophosphocholines of the platelet membranes were replaced either with 1-palmitoyl-2-docosa-hexaenoyl-glycerophosphocholine (bars with vertical stripes, "22:6n-3"), or with 1-palmitoyl-2-linoloyl-glycerophosphocholine (bars with horizontal stripes, "18:2n-6"), using the endogenous transfer protein of the platelets which is specific for the phosphatidylinositols and phosphatidylcholines. The control platelet membranes (black bars, "control") are obtained by incubation without addition of phospholipids. The data for the graph represent the mean±S.D. of three independent tests.
The diacyl-glycerophosphoethanolamines of the platelet membranes were replaced either with 1-palmitoyl-2-docosahexaenoyl-glycerophosphoethanolamine (bars with vertical stripes, "22:6n-3"), or with 1-palmitoyl-2-linoloyl-glycerophosphoethanolamine (bars with horizontal stripes "18:2n-6"), using the lipid transfer protein purified from maize. The control platelet membranes (black bars, "control") are obtained by incubation without addition of phospholipids. The data for the graph represent the mean±S.D. of three independent tests.
Preparations of esterified DHA into various classes of phospholipids were carried out using phospholipid transfer proteins in order to enrich, in a specific manner, the phosphatidylcholines (PC) and the phosphatidylethanolamines (PE) of the platelet membranes in linoleic acid (18:2n-6) and in DHA (49). In particular, the transfer protein (PT), which is specific for the PC's and purified from bovine liver, was used to modify the composition of molecular species of the PC's of erythrocytes (49).
In the procedure used in the present example, the endogenous quantity of platelet phospholipids is not altered by the transfer carried out by means of the maize or platelet PT; nevertheless, the phospholipids were enriched in 18:2n-6 or in DHA.
The influence of the fatty acids on the TXA2 /PGH2 receptor was established by measuring the specific binding of tritiated SQ29,548, a competitive antagonist of the TXA2 /PGH2 receptor, to platelet membranes whose PC's or PE's are enriched either in 18:2n-6 or in DHA.

brain = assay: Distribution of the radioactivity between the lipid classes of the brain after intravenous injection of lyso-PCDHA or non-esterified DHA; type: in vivo, rat; details: injection of non-esterified DHA
Excerpt: (§1) The animal studied is a 20-day-old rat in which the cerebral lipid metabolism is at its peak.
(§2) The lyso-PC's are labelled on the fatty acid and the choline, attached to albumin and administered intravenously (50). […] It therefore appears that the lyso-PCDHA's attached to albumin constitute a particularly preferred form of supply of DHA to the developing brain.

kidney = assay: Capture by the kidney, in rats, of lyso-PCDHA and non-esterified DHA; type: in vivo; details: 20-day-old rat, intravenous; lyso-PCDHA vs non-esterified DHA
Excerpt: FIG. 3 represents the variation of the radio-activity recovered in the total lipids: A from the brain, B from the kidney, C from the heart and D from the liver, after injecting tritiated DHA in free form (black circle) or in the form of 2-DHA-1-lyso-PC (black triangle).
as §1, §2

[2] = individual test, platelet membranes, PE's enriched
[3] = individual test, platelet membranes, PE's enriched, read-out: Kd of SQ 29.548
[4] = mean of three tests, PE's enriched
[5] = mean of three tests, PE's enriched, read-out: Kd of SQ 29.548
[6] = individual test, platelet membranes, PC's enriched
[7] = mean of three tests, PC's enriched

## CCCCC/C=C\C/C=C\CCCCCCCC(=O)OC(COC(=O)CCCCCCCCCCCCCCC)COP(=O)(O)OCCN (stereo not shown) [PE 18:2n-6, 1-palmitoyl-2-linoloyl-glycerophosphoethanolamine]
[1]; [2]
  Bmax of SQ 29.548: 1.89 pmol/mg prot. and 2.26 pmol/mg prot. and 2.07 pmol/mg prot.
  Hill Coefficient: 0.94 and 1.00 and 1.05
[1]; [3]
  Kd: 3.11 nM and 4.31 nM and 4.92 nM
[1]; [4]
  Bmax of SQ 29.548: 2.07 ± 0.19 pmol/mg prot.
  Hill Coefficient: 1.00 ± 0.06
[1]; [5]
  Kd: 4.11 ± 0.92 nM
[1]
  effect on the TXA2 /PGH2 receptor (dissociation constant of SQ29.548): no effect on the receptor

## CC/C=C\C/C=C\C/C=C\C/C=C\C/C=C\C/C=C\CCC(=O)OC(COC(=O)CCCCCCCCCCCCCCC)COP(=O)(O)OCCN (stereo not shown) [PE 22:6n-3, 1-palmitoyl-2-docosahexaenoyl-glycerophosphoethanolamine]
[1]; [2]
  Bmax of SQ 29.548: 1.67 pmol/mg prot. and 1.99 pmol/mg prot. and 1.91 pmol/mg prot.
  Hill Coefficient: 0.95 and 1.02
[1]; [3]
  Kd: 2.92 nM and 4.61 nM and 4.63 nM
[1]; [4]
  Bmax of SQ 29.548: 1.86 ± 0.17 pmol/mg prot.
  Hill Coefficient: 1.00 ± 0.04
[1]; [5]
  Kd: 4.05 ± 0.98 nM
[1]
  effect on the TXA2 /PGH2 receptor (dissociation constant of SQ29.548): no effect on the receptor

## CCCCC/C=C\C/C=C\CCCCCCCC(=O)OC(COC(=O)CCCCCCCCCCCCCCC)COP(=O)([O-])OCC[N+](C)(C)C (stereo not shown) [PC 18:2n-6, 1-palmitoyl-2-linoloyl-glycerophosphocholine]
[1]; Kd of SQ 29.548, individual test, platelet membranes, PC's enriched
  Kd: 4.64 nM and 3.16 nM and 4.05 nM
[1]; Kd of SQ 29.548, mean of three tests, PC's enriched, (a) p < 0.05 compared with the control and with PC 18:2n6 for PC 22:6n-3
  Kd: 3.95 ± 0.75 nM
[1]; [6]
  Bmax of SQ 29.548: 1.83 pmol/mg prot. and 1.91 pmol/mg prot. and 2.41 pmol/mg prot.
  Hill Coefficient: 1.00 and 0.94 and 0.90
[1]; [7]
  Bmax of SQ 29.548: 2.05 ± 0.31 pmol/mg prot.
  Hill Coefficient: 0.95 ± 0.05
[1]
  effect on the TXA2 /PGH2 receptor (dissociation constant of SQ29.548): no effect on the receptor

## CC/C=C\C/C=C\C/C=C\C/C=C\C/C=C\C/C=C\CCC(=O)OC(COC(=O)CCCCCCCCCCCCCCC)COP(=O)([O-])OCC[N+](C)(C)C (stereo not shown) [PC 22:6n-3, 1-palmitoyl-2-docosahexaenoyl-glycerophosphocholine]
[1]; [6]
  Bmax of SQ 29.548: 2.94 pmol/mg prot. and 2.09 pmol/mg prot. and 2.40 pmol/mg prot.
  Hill Coefficient: 0.91 and 1.00 and 0.94
[1]; individual test, platelet membranes, PC's enriched, read-out: Kd of SQ 29.548
  Kd: 5.69 nM and 8.56 nM and 7.05 nM
[1]; [7]
  Bmax of SQ 29.548: 2.48 ± 0.43 pmol/mg prot.
  Hill Coefficient: 0.95 ± 0.05
[1]; mean of three tests, PC's enriched, (a) p < 0.05 compared with the control and with PC 18:2n6 for PC 22:6n-3, read-out: Kd of SQ 29.548
  Kd: 7.1 ± 1.44 nM
[1]
  effect on the TXA2 /PGH2 receptor (dissociation constant of SQ29.548): significantly increasing the dissociation constant of SQ29.548

## CC/C=C\C/C=C\C/C=C\C/C=C\C/C=C\C/C=C\CCC(=O)O [non-esterified DHA, docosahexaenoic acid, reference compound]
brain; 2.5 min
  radioactivity in LN + AG of the brain: 36.7 % of the radioactivity of the total lipids
  radioactivity in PC of the brain: 18.8 % of the radioactivity of the total lipids
  radioactivity in PE of the brain: 37.5 % of the radioactivity of the total lipids
  radioactivity in PI of the brain: 2.7 % of the radioactivity of the total lipids
  radioactivity in PS of the brain: 4.0 % of the radioactivity of the total lipids
brain; 5 min
  radioactivity in LN + AG of the brain: 19.0 % of the radioactivity of the total lipids
  radioactivity in PC of the brain: 23.2 % of the radioactivity of the total lipids
  radioactivity in PE of the brain: 48.1 % of the radioactivity of the total lipids
  radioactivity in PI of the brain: 5.1 % of the radioactivity of the total lipids
  radioactivity in PS of the brain: 4.6 % of the radioactivity of the total lipids
brain; 7.5 min
  radioactivity in LN + AG of the brain: 30.0 % of the radioactivity of the total lipids
  radioactivity in PC of the brain: 21.1 % of the radioactivity of the total lipids
  radioactivity in PE of the brain: 44.4 % of the radioactivity of the total lipids
  radioactivity in PI of the brain: 2.6 % of the radioactivity of the total lipids
  radioactivity in PS of the brain: 1.8 % of the radioactivity of the total lipids
brain; 8 min
  radioactivity in LN + AG of the brain: 31.6 % of the radioactivity of the total lipids
  radioactivity in PC of the brain: 19.6 % of the radioactivity of the total lipids
  radioactivity in PE of the brain: 40.7 % of the radioactivity of the total lipids
  radioactivity in PI of the brain: 3.8 % of the radioactivity of the total lipids
  radioactivity in PS of the brain: 4.3 % of the radioactivity of the total lipids
brain; 15 min
  radioactivity in LN + AG of the brain: 20.8 % of the radioactivity of the total lipids
  radioactivity in PC of the brain: 25.7 % of the radioactivity of the total lipids
  radioactivity in PE of the brain: 49.1 % of the radioactivity of the total lipids
  radioactivity in PI of the brain: 3 % of the radioactivity of the total lipids
  radioactivity in PS of the brain: 2.9 % of the radioactivity of the total lipids
brain; 30 min
  radioactivity in LN + AG of the brain: 20.4 % of the radioactivity of the total lipids
  radioactivity in PC of the brain: 24.8 % of the radioactivity of the total lipids
  radioactivity in PE of the brain: 48.4 % of the radioactivity of the total lipids
  radioactivity in PI of the brain: 3.4 % of the radioactivity of the total lipids
  radioactivity in PS of the brain: 2.9 % of the radioactivity of the total lipids
brain; 60 min
  radioactivity in LN + AG of the brain: 12.5 % of the radioactivity of the total lipids
  radioactivity in PC of the brain: 24.3 % of the radioactivity of the total lipids
  radioactivity in PE of the brain: 54.1 % of the radioactivity of the total lipids
  radioactivity in PI of the brain: 2.8 % of the radioactivity of the total lipids
  radioactivity in PS of the brain: 6.3 % of the radioactivity of the total lipids
kidney
  capture by the kidney: captures the two forms of supply in essentially the same manner
